Results from PubChem BioAssay (NCI).
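Each compound was tested at five concentrations against cells in 96-well plates for 48 hours. GI50: concentration for 50% inhibition of growth. At the TGI there is no net growth.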

What was measured:
Assay in all cases: NCI tumour cell line growth inhibition, 48 h
[1] = test system: MCF7 breast
[2] = test system: CCRF-CEM leukemia
[3] = test system: HT29 colon
[4] = test system: UACC-257 melanoma
[5] = test system: RPMI-8226 leukemia
[6] = test system: SNB-19 CNS
[7] = test system: NCI-H23 lung
[8] = test system: IGROV1 ovarian
[9] = test system: NCI/ADR-RES ovarian
[10] = test system: OVCAR-4 ovarian
[11] = test system: SF-268 CNS
[12] = test system: SK-MEL-2 melanoma
[13] = test system: OVCAR-3 ovarian
[14] = test system: RXF 393 renal
[15] = test system: MALME-3M melanoma
[16] = test system: HCC-2998 colon
[17] = test system: SN12C renal
[18] = test system: PC-3 prostate
[19] = test system: CAKI-1 renal
[20] = test system: SR leukemia
[21] = test system: HL-60(TB) leukemia
[22] = test system: EKVX NSCLC
[23] = test system: SW-620 colon
[24] = test system: 786-0 renal
[25] = test system: A498 renal
[26] = test system: ACHN renal
[27] = test system: SK-MEL-28 melanoma
[28] = test system: KM12 colon

Cc1ccc(C(=O)Nc2ccc(CNCCN3CCOCC3)c(C(F)(F)F)c2)cc1C#Cc1cnc2cccnn12
GI50 [1]: 1420 nM
TGI [1]: 3200 nM
GI50 [2]: 1550 nM
TGI [2]: 8230 nM
GI50 [3]: 794 nM
TGI [3]: 5990 nM
GI50 [4]: 1690 nM
TGI [4]: 3570 nM
GI50 [5]: 1420 nM
TGI [5]: 3830 nM
GI50 [6]: 3110 nM
TGI [6]: 9730 nM
GI50 [7]: 890 nM
TGI [7]: 3030 nM
GI50 [8]: 1270 nM
TGI [8]: 3430 nM
GI50 [9]: 2170 nM
TGI [9]: 7470 nM
GI50 [10]: 2520 nM
TGI [10]: 14500 nM
GI50 [11]: 2460 nM
TGI [11]: 7040 nM
GI50 [12]: 1270 nM
TGI [12]: 3440 nM
GI50 [13]: 2390 nM
TGI [13]: 6240 nM
GI50 [14]: 1630 nM
TGI [14]: 3210 nM
GI50 [15]: 229 nM
TGI [15]: 1870 nM
GI50 [16]: 1550 nM
TGI [16]: 3240 nM
GI50 [17]: 1750 nM
TGI [17]: 5680 nM
GI50 [18]: 2070 nM
TGI [18]: 6170 nM
GI50 [19]: 2900 nM
TGI [19]: 7230 nM
GI50 [20]: 1400 nM
TGI [20]: 6640 nM
GI50 [21]: 145 nM
TGI [21]: 2600 nM
GI50 [22]: 3120 nM
TGI [22]: 10700 nM
GI50 [23]: 1660 nM
TGI [23]: 10500 nM
GI50 [24]: 1210 nM
TGI [24]: 3290 nM
GI50 [25]: 1940 nM
TGI [25]: 4280 nM
GI50 [26]: 2820 nM
TGI [26]: 9550 nM
GI50 [27]: 1220 nM
TGI [27]: 2740 nM
GI50 [28]: 393 nM
TGI [28]: 2680 nM
